Here are results for two compounds from PMC8145110, “Design, Synthesis, and Antibacterial Screening of Some Novel Heteroaryl-Based Ciprofloxacin Derivatives as DNA Gyrase and Topoisomerase IV Inhibitors” (Pharmaceuticals, 2021).

≈ marks a conversion by molar mass, not a printed value. Some results are limits rather than exact numbers.

The test system of data set [1] is most of the pathogens tested. Further details: method as in doi:10.1002/jhet.2760. Conditions: cited from earlier work.
Data set [2] deals with Candida albicans (ATCC 7102). In words: Kirby-Bauer disc diffusion, C. albicans. To be noted: % of fluconazole. The class given is cell-based. The protocol: Furthermore, using fluconazole as a reference drug, 1–21 were tested in vitro for antifungal activity against A. flavus and C. albicans (Table 1).
The cultures used were collected from the Cairo University’s Microanalytical Centre, Faculty of Science. An updated Kirby-Bauer disc diffusion method was applied for antimicrobial activities of the tests 1–21 compounds [32, 33, 34, 35]. See Appendix A.
The cultures used were collected from the Cairo University’s Microanalytical Centre, Faculty of Science. An updated Kirby-Bauer disc diffusion method was applied for the antimicrobial activities of the tests for compounds 1–21 [28]. […] Plates inoculated with filamentous fungi as Aspergillus flavus were incubated at 25 °C for 48 h; Gram positive bacteria as Staphylococcus aureus (ATCC 12600, Microanalytical center, Cairo, Egypt), Bacillus subtilis (ATCC 6051); Gram negative bacteria as Escherichia coli (ATCC 11775), Pseudomonas aeuroginosa (ATCC 10145) were incubated at 35–37 °C for 24–48 h and yeast as Candida albicans (ATCC 7102) was incubated at 30 °C for 24–48 h and, then the diameters of the inhibition zones were measured in millimeters. […] For the disc diffusion, the zone diameters were measured with slipping calipers of the National Committee for Clinical Laboratory Standards, and the results are given in Table 1. […]

Another data set deals with E. coli. In words: MIC, two-fold serial dilution, E. coli. To be noted: Escherichia coli; read-out: Minimum Inhibitory Concentration (MIC), E. coli. The class given is cell-based. The method, then: (§1) Table 2, using the reference drug ciprofloxacin, was presented with the MICs (minimal inhibitory concentrations) of these compounds against tested bacteria. […] The nature of aromatic substitution in the oxadiazole moiety tends to be correlated with higher antibacterial effects and the activity increased with (Ar) in the order of 2-pyridyl ≥ 3-pyridyl > 4-pyridyl > 2-Cl-Ph > 2-naphthyl.
(§2) On 96-well microtiter plates and […] of fresh bacterial culture of a single McFarland unit overnight, a double serial dilution of each compound […] in sterile standard saline was prepared for every single source well. Ciprofloxacin antibiotic (5 mg/mL^−1) and normal saline were included as standard references in each assay (see Appendix A).
(§3) In 96-well microtiter plates and […] of fresh bacterial culture of a single McFarland unit overnight, a double serial dilution of each compound […] in sterile standard saline was prepared for every single source well. Ciprofloxacin antibiotic (5 mg/mL^−1) and normal saline were included as standard reference in each assay. The plates were incubated at 37 °C overnight. As an indicator of bacterial growth, […] of p-iodonitrotetrazolium violet (INT) was added to each well and incubated at 37 °C for 30 min. […] The colorless tetrazolidium salt acts as an electron accepter and is reduced to a red colored formazan product by biological activity organisms. Where bacterial growth was inhibited, the solution in the well remained clear after incubation with INT.

The next data set deals with S. aureus. In words: MIC, two-fold serial dilution, S. aureus. The class given is cell-based, Staphylococcus aureus. Conditions: Staphylococcus aureus; read-out: Minimum Inhibitory Concentration (MIC), S. aureus. The protocol:
as §1, §2, §3

A short description of data set [3]: Cell viability assay (MTT). The class given is cell-based. Details: dose or concentration left out as unconfirmed. To be noted: human, MCF-10A mammary gland epithelial cells, four days. The protocol: A human mammary gland epithelial cell line (MCF-10A) was used to conduct a cell viability assay. Compounds 2–6 were incubated with MCF-10A cells for four days, and the viability of the cells was determined using the 3-(4,5-dimethylthiazol-2-yl)-2,5-diphenyltetrazolium bromide (MTT) assay. All compounds had no cytotoxic effects, and the viability of the cells was greater than 85% for most of the compounds examined […], as shown in Table 4.
MTT Assay was performed to investigate the effect of compounds 2–6 on the viability of mammary epithelial cells (MCF-10A) (see Appendix A).

A further data set concerns the target T1, E. coli topoisomerase IV (Escherichia coli, UniProt P0AFI2+P20083).
T1 construct: purchased Inspiralis
In words: E. coli topoisomerase IV assay. Conditions: read-out: RA (%), residual activity of E. coli Topo IV. The class given is biochemical. The protocol: (§4) IC50 assay determination was carried out in accordance with the procedures previously stated (see Appendix A).
(§5) Inhibitory activities were determined in an assay from Inspiralis on streptavidin-coated 96-well microtiter plates from Thermo scientific Pierce. […] After washing off the unbound oligonucleotide, the enzyme test was performed. […] After that, the TF buffer (50 mM NaOAc with pH 5.0, 50 mM NaCl and 50 mM MgCl2) was added to terminate the enzymatic reaction. After additional incubation for 30 min at rt, during which biotin-oligonucleotide-plasmid triplex was 19 formed, the unbound plasmid was washed off using TF buffer and SybrGOLD in T10 buffer (10 mM Tris HCl with pH 8.0 and 1 mM EDTA) was added. […] Initial screening was done at 100 or 10 μM concentration of inhibitors. […] GraphPad Prism software was used to calculate the IC50 values. The result is given as the average value of three independent measurements. […] Determination of inhibitory activities on E. coli and S. aureus Topoisomerase IV IC50 values were determined in an assay from Inspiralis on streptavidin-coated 96-well microtiter plates from Thermo scientific Pierce. […] After washing off the unbound oligonucleotide, the enzyme test was performed. The reaction volume of 30 μL in buffer (40 mM HEPES KOH with pH 7.6, 100 mM potassium glutamate, 10 mM magnesium acetate, 10 mM DTT, 1 mM ATP, 0.05 mg/mL albumin) contained 1.5 U of topoisomerase IV from E. coli or S. aureus, 0.75 μg of pNO1 supercoiled plasmid, and 3 μL solution of the inhibitor in DMSO (10%) and Tween 20 (0.008%). […] After additional incubation for 30 min at rt, during which triplex (biotin-oligonucleotide-plasmid) was formed, the unbound plasmid was washed off using TF buffer and SybrGOLD in T10 buffer (10 mM Tris HCl with pH 8.0 and 1 mM EDTA) was added. […] Initial screening was done at 100 or 10 μM concentration of inhibitors. […] GraphPad Prism software was used to calculate the IC50 values. The result is given as the average value of three independent measurements.

Another data set relates to B. subtilis. In words: MIC, two-fold serial dilution, B. subtilis. The class given is cell-based. To be noted: Bacillus subtilis; read-out: Minimum Inhibitory Concentration (MIC), B. subtilis. The protocol: as §1, §2, §3
In the next data set the test system is P. aeruginosa. In words: MIC, two-fold serial dilution, P. aeruginosa. The class given is cell-based. Conditions: Pseudomonas aeruginosa; read-out: Minimum Inhibitory Concentration (MIC), P. aeruginosa. The protocol:
as §1, §2, §3

Another data set addresses T2, E. coli DNA gyrase (Escherichia coli, UniProt P0AES4+P0AES6).
T2 construct: purchased Inspiralis
In words: E. coli DNA gyrase assay. The class given is biochemical. The method, then: as §4, §5

What is called viability is a read-out of living cells in per cent, often relative to untreated cells. Usually melting point stands for the temperature of the solid-liquid transition. What is called IC50 is the concentration needed to halve the response being measured.

T2 sequence (P0AES4 whole entry, one chain of several): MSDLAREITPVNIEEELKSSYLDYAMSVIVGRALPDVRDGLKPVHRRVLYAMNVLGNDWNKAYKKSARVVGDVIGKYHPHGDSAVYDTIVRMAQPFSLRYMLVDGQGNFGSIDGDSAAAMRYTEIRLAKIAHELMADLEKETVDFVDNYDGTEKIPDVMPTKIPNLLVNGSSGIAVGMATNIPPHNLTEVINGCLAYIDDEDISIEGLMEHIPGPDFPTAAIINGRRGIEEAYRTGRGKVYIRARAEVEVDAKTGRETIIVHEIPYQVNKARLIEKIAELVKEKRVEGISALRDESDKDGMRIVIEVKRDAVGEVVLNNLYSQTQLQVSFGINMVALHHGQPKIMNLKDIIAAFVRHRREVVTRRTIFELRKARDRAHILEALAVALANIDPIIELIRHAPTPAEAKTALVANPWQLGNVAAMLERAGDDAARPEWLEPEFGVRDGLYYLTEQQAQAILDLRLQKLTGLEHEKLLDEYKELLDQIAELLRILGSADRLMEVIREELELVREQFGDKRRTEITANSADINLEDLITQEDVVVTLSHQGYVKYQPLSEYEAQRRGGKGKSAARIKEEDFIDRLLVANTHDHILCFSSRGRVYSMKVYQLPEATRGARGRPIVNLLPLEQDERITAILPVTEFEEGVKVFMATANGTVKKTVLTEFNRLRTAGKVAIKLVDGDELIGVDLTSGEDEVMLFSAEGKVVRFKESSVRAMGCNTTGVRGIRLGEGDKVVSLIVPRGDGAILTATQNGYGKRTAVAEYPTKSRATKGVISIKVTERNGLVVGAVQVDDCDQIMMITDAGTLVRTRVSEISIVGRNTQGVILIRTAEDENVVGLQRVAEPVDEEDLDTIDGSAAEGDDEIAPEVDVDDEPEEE
T1 sequence (P0AFI2 whole entry): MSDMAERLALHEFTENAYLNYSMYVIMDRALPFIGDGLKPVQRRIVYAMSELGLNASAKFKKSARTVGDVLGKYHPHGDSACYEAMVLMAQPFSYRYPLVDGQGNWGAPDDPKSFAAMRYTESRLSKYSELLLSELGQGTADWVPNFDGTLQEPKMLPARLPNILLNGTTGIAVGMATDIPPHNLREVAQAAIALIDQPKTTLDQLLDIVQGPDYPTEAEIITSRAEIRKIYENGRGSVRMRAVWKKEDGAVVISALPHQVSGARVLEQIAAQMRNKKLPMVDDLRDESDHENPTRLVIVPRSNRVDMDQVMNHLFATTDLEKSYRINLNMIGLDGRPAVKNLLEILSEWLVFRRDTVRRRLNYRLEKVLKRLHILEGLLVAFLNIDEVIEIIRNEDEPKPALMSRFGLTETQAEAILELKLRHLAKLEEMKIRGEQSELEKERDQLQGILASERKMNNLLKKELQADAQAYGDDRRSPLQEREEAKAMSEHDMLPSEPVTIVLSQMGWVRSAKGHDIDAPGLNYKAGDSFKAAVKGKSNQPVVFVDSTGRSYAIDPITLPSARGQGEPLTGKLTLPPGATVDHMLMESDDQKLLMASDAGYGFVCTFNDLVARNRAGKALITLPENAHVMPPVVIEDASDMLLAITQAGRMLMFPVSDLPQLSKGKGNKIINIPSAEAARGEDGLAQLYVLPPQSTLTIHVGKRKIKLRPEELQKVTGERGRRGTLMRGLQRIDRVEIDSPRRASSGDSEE
T1 sequence (P20083 whole entry): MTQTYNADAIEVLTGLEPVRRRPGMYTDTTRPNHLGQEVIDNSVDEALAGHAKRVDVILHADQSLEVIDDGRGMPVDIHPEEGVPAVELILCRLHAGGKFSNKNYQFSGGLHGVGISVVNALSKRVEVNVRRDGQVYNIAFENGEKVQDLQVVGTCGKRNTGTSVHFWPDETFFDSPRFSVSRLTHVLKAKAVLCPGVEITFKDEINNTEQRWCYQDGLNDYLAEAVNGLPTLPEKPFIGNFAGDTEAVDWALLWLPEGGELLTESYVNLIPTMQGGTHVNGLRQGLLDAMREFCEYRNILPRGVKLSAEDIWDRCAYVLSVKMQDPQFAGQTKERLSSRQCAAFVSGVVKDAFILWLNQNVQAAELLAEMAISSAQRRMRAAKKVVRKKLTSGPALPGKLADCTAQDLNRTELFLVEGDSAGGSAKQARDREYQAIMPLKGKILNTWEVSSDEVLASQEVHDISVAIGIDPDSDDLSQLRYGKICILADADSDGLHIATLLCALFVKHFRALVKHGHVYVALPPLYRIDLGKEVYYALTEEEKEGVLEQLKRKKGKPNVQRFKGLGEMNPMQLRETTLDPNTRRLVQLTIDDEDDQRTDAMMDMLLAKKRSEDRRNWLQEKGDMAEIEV

Regarding `O=C(O)c1cn(C2CC2)c2cc(N3CCN(Cn4nc(CN5CCSCC5)oc4=S)CC3)c(F)cc2c1=O` [I], the “times more potent than ampicillin” value in data set [1] is recorded as greater than 41 times.
Compound `O=C(O)c1cn(C2CC2)c2cc(N3CCN(Cn4nc(-c5ccc6ccccc6c5)oc4=S)CC3)c(F)cc2c1=O` [Compound 3, 1-Cyclopropyl-6-fluoro-7-[4-(5-naphthalen-2-yl-2-thioxo-[1,3,4]oxadiazol-3-ylmethyl)-piperazin-1-yl]-4-oxo-1,4-dihydro-quinoline-3-carboxylic acid] gave a melting point of 244 °C. In addition, the “antifungal activity against C. albicans relative to fluconazole” value in [2] was 33%. In addition, the MIC in the data set on E. coli was found to be 0.125 µg/mL (≈ 0.219 µM). Further, in the data set with S. aureus, the MIC is 0.125 µg/mL (≈ 0.219 µM). In [3], the viability at 4 days came out at 85%. Further, the remaining activity at 1 µM at E. coli topoisomerase IV came to 58%. Moreover, the MIC in the data set with B. subtilis stood at 0.125 µg/mL (≈ 0.219 µM). In the data set with P. aeruginosa, the MIC stood at 0.05 µg/mL (≈ 0.0875 µM). Moreover, on E. coli DNA gyrase, inhibition was half-maximal at 86 ± 9 nM (IC50).
